Assay results published in patent publication US7816497B2, “Compositions and methods for inhibiting drusen complement components C3a and C5a for the treatment of age-related macular degeneration” (University of Kentucky, priority 2002, dated 2010).

B1: C5a: activated complement component 5 (human), applied to RPE cells or injected intravitreously (protein, UniProt P01031 678-751, looked up)
C5a anaphylatoxin: TLQKKIEEIAAKYKHSVVKKCCYDGACVNNDETCEQRAARISLGPRCIKAFTECCVVASQLRANISHKDMQLGR
modifications: C5a anaphylatoxin

How the values were obtained:
laser-induced CNV = assay: Laser-induced CNV in wild-type mice, intravitreous injection of complement blockers; type: in vivo; settings: intravitreous injection immediately after laser injury, compared with control peptide or isotype control antibodies
Description: Laser photocoagulation (532 nm, 200 mW, 100 ms, 75 μm) (OcuLight GL, Iridex) was performed (volume studies: 3/eye; protein analyses/flow cytometry: 12/eye) on both eyes of each animal to induce CNV as previously described in Sakurai, E., Taguchi, H., Anand, A., Ambati, B. K., Gragoudas, E. S., Miller, J. W., Adamis, A. P. & Ambati, J. (2003) Invest Ophthalmol Vis Sci 44, 2743-9; and Sakurai, E., Anand, A., Ambati, B. K., van Rooijen, N. & Ambati, J. (2003) Invest Ophthalmol Vis Sci 44, 3578-85. CNV volumes were measured by scanning laser confocal microscope (TCS SP, Leica) as previously reported (Id.) with 0.5% FITC-Griffonia simplicifolia Isolectin B4 (Vector Laboratories) or 0.5% FITC-rat antibody against mouse CD31 (BD Pharmingen). Volumes obtained by lectin and CD31 staining were highly correlated (r^2=0.95). […]
Because the probability of each laser lesion developing CNV is influenced by the group to which it belongs, the mouse, the eye, and the laser spot, the mean lesion volumes were compared using a linear mixed model with a split plot repeated measures design, as previously described. […] Statistical significance was determined at the 0.05 level. […]

human RPE cells = assay: VEGF secretion by human RPE cells (VEGF ELISA); type: cell-based; settings: 50 ng/ml; confluent and subconfluent conditions; compared to PBS
Description: Human RPE cells (gift of David R. Hinton, University of Southern California) were cultured in Dulbecco's modified essential medium (Invitrogen) containing 10% fetal bovine serum, penicillin G (100 U/ml), streptomycin sulfate (0.1 mg/ml) (all from Sigma-Aldrich) at 37° C. under 10% CO2 and 90% room air. Cells were used for experiments upon attaining 80% or 100% confluence.
(§1) The RPE/choroid complex was dissected from the mouse eye and sonicated in lysis buffer (20 mM imidazole HCl, 10 mM KCl, 1 mM MgCl2, 10 mM EGTA, 1% Triton X-100, 10 mM NaF, 1 mM Na molybdate, 1 mM EDTA with protease inhibitor (Sigma-Aldrich)) on ice for 45 sec. VEGF protein levels (pg/ml) in the RPE cell culture supernatant or the RPE/choroid lysate were determined by ELISA (R&D Systems) and normalized to total protein (μg/ml) (Bio-Rad).
(§2) VEGF protein data are represented as the mean±s.e.m. of at least 3 independent experiments and compared using a two-tailed Student's t-test. The null hypothesis was rejected at P<0.05.

VEGF = VEGF levels in mouse eye tissue after intravitreous injection (VEGF ELISA); type: in vivo; settings: wild-type mice, 4 hours after injection, dose-dependent
Description: as §1, §2

[1] = tested on: macrophages or neutrophils in the choroid; assay: Leukocyte numbers in the choroid after intravitreous injection (flow cytometry); type: in vivo, mice; settings: 4 hours after intravitreous injection; data not shown
Description: Single cell suspensions isolated from mouse RPE/choroids via collagenase D treatment (20 U/mL; Roche Diagnostics) were incubated in Fc block (0.5 mg/mL; BD Pharmingen) for 15 min on ice, stained with Cy5-rat antibody to mouse F4/80 (1:30; Serotec), FITC-hamster antibody to mouse CD11c (1:100; Serotec), or PE-rat antibody to mouse Gr-1 (1:200; eBioscience), and subjected to FACS analysis (FACScalibur, BD Biosciences). Macrophages and neutrophils were defined as F4/80+CD11c- and Gr-1+F4/80-cells, respectively.

Row | Molecule | CNV (volume of laser-induced CNV) (laser-induced CNV) | human RPE cell secretion of VEGF (human RPE cells) | VEGF levels in the RPE/choroid (VEGF) | number of macrophages or neutrophils in the choroid [1]
1 | N=C(N)NCCC[C@H](NC(=O)COCC(c1ccccc1)c1ccccc1)C(=O)O [C3aRA, N^2-[(2,2-diphenylethoxy)acetyl]-arginine] | reduced |  |  | 
2 | AcF[OPdChaWR] [C5aRA] | reduced |  |  | 
3 | C3a: activated complement component 3 (human), applied to RPE cells or injected intravitreously |  | upregulated | increase | no increase
4 | B1 |  | upregulated | increase | no increase
